Measured values published in patent publication US20250332266A1, “COMPOUNDS FOR THE DEGRADATION OF EGFR KINASE” (BeiGene Switzerland GmbH, priority 2022, published 2025).

Assays:
[1] = biological target: T1, EGFR L858R/T790M/C797S (H1975-clone #25) (Homo sapiens, UniProt P00533, C797S/L858R/T790M); test: EGFR degradation, HTRF total-EGFR assay, H1975-clone #25 (LTC); format: cell-based; conditions: H1975-clone #25 L858R/T790M/C797S, 16 h treatment
T1 construct: expressed in transfected cells; host or cells: H1975 (clone #25), lentiviral transduction, endogenous EGFR knocked out
T1 sequence (P00533 25-1210 T790M/C797S/L858R): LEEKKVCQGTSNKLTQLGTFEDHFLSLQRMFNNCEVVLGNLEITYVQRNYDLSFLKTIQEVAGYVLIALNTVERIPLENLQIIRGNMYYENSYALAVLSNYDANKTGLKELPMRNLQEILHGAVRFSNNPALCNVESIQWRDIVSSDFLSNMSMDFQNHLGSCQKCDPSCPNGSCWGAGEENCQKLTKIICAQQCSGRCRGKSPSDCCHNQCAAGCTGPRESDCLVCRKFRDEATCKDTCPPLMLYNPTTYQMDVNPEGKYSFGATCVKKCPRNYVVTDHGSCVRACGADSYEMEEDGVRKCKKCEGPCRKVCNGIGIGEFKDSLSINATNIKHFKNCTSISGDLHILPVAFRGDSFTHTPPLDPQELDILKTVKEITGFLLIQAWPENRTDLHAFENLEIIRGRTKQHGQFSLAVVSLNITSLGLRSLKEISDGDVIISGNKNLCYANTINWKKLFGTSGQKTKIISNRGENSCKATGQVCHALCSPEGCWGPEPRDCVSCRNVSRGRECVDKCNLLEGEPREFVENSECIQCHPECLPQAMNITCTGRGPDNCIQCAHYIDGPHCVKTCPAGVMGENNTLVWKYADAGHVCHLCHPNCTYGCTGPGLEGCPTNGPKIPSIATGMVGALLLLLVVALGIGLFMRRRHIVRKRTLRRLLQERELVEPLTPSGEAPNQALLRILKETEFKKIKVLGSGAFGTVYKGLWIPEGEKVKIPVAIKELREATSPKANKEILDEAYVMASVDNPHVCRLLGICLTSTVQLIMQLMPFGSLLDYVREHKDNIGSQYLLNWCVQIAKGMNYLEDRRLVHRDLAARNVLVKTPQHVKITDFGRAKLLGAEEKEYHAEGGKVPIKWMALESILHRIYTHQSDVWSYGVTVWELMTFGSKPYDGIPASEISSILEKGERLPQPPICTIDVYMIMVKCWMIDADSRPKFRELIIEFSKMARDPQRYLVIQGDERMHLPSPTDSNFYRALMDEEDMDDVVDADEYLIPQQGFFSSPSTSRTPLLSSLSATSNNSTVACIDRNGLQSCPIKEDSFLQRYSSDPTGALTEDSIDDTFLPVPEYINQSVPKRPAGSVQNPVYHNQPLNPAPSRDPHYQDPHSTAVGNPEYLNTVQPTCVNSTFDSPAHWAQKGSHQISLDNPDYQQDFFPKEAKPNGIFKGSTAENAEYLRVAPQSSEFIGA
From the text: (§1) H1975-clone #28 (Del19/T790M/C797S, or abbr: DTC), H1975-clone #23 (Del19/C797S, or abbr: DC), H1975-clone #25 (L858R/T790M/C797S, or abbr: LTC) and H1975-clone #8 (L858R/C797S, or abbr: LC). EGFR-Del19/T790M/C797S, EGFR-Del19/C797S, EGFR-L858R/T790M/C797S and EGFR-L858R/C797S were stably expressed in H1975 cell lines by lentivirus-mediated over-expression, respectively. The EGFR over-expressed cells then underwent knockout, in which the EGFR targeting sgRNA was designed to only target the endogenous EGFR copies and preserve the exogenous EGFR copies. Followed by the knockout, the edited H1975 cells were seeded in 96 well plates at the concentration of 1 cell/well, cultured for about 2 weeks to allow single clones formation. The formed clones were screened by DNA sequencing and whole exon sequencing analysis for the desired edition. H1975-clone #28, H1975-clone #23, H1975-clone #25 and H1975-clone #8 were finally confirmed as homozygous Del19/T790M/C797S EGFR, Del19/C797S EGFR, L858R/T790M/C797S EGFR and L858R/C797S EGFR clones, respectively.
(§2) H1975-#25, H1975-#28, H1975-#23 and H1975-#8 cells are treated with compounds diluted in 0.2% DMSO cell culture medium on day 2, incubate for 16 h, 37° C., 5% CO2. The final concentration of compounds in all assay is start with 10 μM, 5-fold dilution, total 8 doses were included.
(§3) Total-EGFR cellular kit(64NG1PEH) were used for evaluating EGFR degradation.
(§4) After 16 h treatment, add HTRF lysis buffer to each well; seal the plate and incubate 1 hour at room temperature on a plate shaker; Once the cells are lysed, 16 μL of cell lysate are transferred to a PE 384-well HTRF detection plate; 4 μL of pre-mixed HTRF antibodies are added to each well; cover the plate with a plate sealer, spin 1000 rpm for 1 min, incubate overnight at room temperature; read on BMG PheraStar with HTRF protocol (337 nm-665 nm-620 nm).
(§5) The inhibition (degradation) percentage of the compound was calculated by the following equation:
(§6) Inhibition percentage of Compound=100−100×(Signal−low control)/(High control−low control), wherein signal=each test compound group
(§7) High control=Cell group with added DMSO and without compound, indicating microplate readings without EGFR degradation.
(§8) Imax (Dmax) is the maximum percentage of inhibition (degradation).
(§9) The IC50 (DC50) value of a compound can be obtained by fitting the following equation
(§10) Wherein, X and Y are known values, and IC50, Hillslope, Top and Bottom are the parameters obtained by fitting with software. Y is the inhibition percentage (calculated from the equation), X is the concentration of the compound; IC50 is the concentration of the compound when the 50% inhibition is reached. The smaller the IC50 value is, the stronger the inhibitory ability of the compound is. Vice versa, the higher the IC50 value is, the weaker the ability the inhibitory ability of the compound is; Hillslope represents the slope of the fitted curve, generally around 1*; Bottom represents the minimum value of the curve obtained by data fitting, which is generally 0%±20%; Top represents the maximum value of the curve obtained by data fitting, which is generally 100%±20%. The experimental data were fitted by calculating and analyzing with Dotmatics data analysis software.

[2] = biological target: EGFR Del19/T790M/C797S (H1975-clone #28) (Homo sapiens, UniProt P00533, T790M/C797S, form not given); test: EGFR degradation, HTRF total-EGFR assay, H1975-clone #28 (DTC); format: cell-based; conditions: H1975-clone #28 Del19/T790M/C797S, 16 h treatment
EGFR Del19/T790M/C797S (H1975-clone #28), sequence (P00533 with tags, fused parts or gaps DEL746-750/T790M/C797S, form open): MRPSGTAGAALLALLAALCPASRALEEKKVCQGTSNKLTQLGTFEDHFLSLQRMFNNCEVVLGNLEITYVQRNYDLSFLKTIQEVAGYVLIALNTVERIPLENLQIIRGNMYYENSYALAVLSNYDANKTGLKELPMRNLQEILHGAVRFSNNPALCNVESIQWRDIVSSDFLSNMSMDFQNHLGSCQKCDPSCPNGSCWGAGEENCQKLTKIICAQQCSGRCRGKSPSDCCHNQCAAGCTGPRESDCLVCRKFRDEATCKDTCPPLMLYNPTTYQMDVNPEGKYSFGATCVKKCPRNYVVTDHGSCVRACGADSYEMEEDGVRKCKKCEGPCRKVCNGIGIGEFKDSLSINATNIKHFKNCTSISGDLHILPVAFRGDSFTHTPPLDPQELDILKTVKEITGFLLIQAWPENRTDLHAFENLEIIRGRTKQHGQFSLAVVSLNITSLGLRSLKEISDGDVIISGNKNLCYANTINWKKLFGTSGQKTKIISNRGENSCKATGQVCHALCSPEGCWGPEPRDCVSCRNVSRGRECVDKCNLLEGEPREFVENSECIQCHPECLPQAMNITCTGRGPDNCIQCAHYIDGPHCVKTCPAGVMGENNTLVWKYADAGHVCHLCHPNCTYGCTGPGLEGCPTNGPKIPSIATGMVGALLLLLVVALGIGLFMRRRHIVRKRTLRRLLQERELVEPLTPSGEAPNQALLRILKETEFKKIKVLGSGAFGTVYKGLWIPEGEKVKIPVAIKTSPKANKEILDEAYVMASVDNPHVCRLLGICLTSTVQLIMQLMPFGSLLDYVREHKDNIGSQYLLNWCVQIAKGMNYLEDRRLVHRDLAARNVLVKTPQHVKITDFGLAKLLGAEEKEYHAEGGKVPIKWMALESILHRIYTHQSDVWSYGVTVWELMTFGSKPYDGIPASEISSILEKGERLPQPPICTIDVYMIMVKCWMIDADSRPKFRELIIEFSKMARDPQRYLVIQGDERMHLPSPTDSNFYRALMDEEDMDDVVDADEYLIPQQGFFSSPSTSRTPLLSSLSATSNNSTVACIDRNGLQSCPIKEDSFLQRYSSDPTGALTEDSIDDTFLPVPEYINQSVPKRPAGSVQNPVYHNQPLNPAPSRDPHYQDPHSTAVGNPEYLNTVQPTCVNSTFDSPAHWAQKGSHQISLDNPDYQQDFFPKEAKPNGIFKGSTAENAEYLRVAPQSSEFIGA
From the text: as §1, §2, §3, §4, §5, §6, §7, §8, §9, §10

Degradation H1975 # 25-LTC [1]	Degradation H1975 # 28 DTC [2]	Compound
83.9	77.1	Cc1cc2cc(n1)-c1cnn(C)c1OC[C@H]1C[C@@H](CN3/C(=N/C2=O)Nc2ccc(N4CCN(CCNc5cc(F)c([C@H]6CCC(=O)NC6=O)c(F)c5)CC4)cc23)C1 (single isomer, unassigned) [Example 14]
64.0	71.5	Cc1cc2cc(n1)-c1cnn(C)c1OC[C@H]1C[C@@H](CN3/C(=N/C2=O)Nc2ccc(N4CCN([C@H]5C[C@@H](Nc6cc(F)c([C@H]7CCC(=O)NC7=O)c(F)c6)C5)CC4)cc23)C1 (single isomer, unassigned) [Example 16]
81.4	78.4	Cc1cc2cc(n1)-c1cnn(C)c1OC[C@H]1C[C@@H](CN3/C(=N/C2=O)Nc2ccc(N4CCN(C5CCN(c6cnc(C7CCC(=O)NC7=O)c(F)c6)CC5)CC4)cc23)C1 (single isomer, unassigned) [Example 38, 3-(5-(4-(4-((7^1s,7^3s,E)-1^1,2^6-dimethyl-3-oxo-5^2,5^3-dihydro-1^1H,5^1H-9-oxa-4-aza-5(2,1)-benzo[d]imidazola-2(2,4)-pyridina-1(4,5)-pyrazola-7(1,3)-cyclobutanacyclononaphane-5^6-yl)piperazin-1-yl)piperdine-1-yl)-3-fluoropyridin-2-yl)piperidine 6-dione]
92.8	91.9	Cc1cc2cc(n1)-c1cnn(C)c1OC[C@H]1C[C@@H](CN3/C(=N/C2=O)Nc2ccc(N4CCN(C5CCN(c6cnc(C7CCC(=O)NC7=O)cc6C)CC5)C[C@H]4C)cc23)C1 (stereo partly drawn) [Example 1, 3-(5-(4-((R)-4-((7^1s,7^3S,E)-1^1,2^6-dimethyl-3-oxo-5^2,5^3-dihydro-1^1H,5^1H-9-oxa-4-aza-5(2,1)-benzo[d]imidazola-2(2,4)-pyridina-1(4,5)-pyrazola-7(1,3)-cyclobutanacyclononaphane-5^6-yl)-3-methylpiperazin-1-yl)piperidin-1-yl)-4-methylpyridin-2-yl)piperidine-2,6-dione]
62.0	84.3	Cc1cc2cc(n1)-c1cnn(C)c1OC[C@H]1C[C@H](CN3/C(=N/C2=O)Nc2ccc(CN4CCN(C(=O)C5CN(c6cc(F)c([C@H]7CCC(=O)NC7=O)c(F)c6)CC5(C)C)CC4)cc23)C1 (stereo partly drawn) [Example 2, (R)-3-(4-((S)-4-(4-(((7^1r,7^3S,E)-1^1,2^6-dimethyl-3-oxo-5^2,5^3-dihydro-1^2H,5′H-9-oxa-4-aza-5(2,1)-benzo[d]imidazola-2(2,4)-pyridina-1(4,5)-pyrazola-7(1,3)-cyclobutanacyclononaphane-5^6-yl)methyl)piperazine-1-carbonyl)-3,3-dimethylpyrrolidin-1-yl)-2,6-difluorophenyl)piperidine-2,6-dione]
85.6	86.7	Cc1cc2cc(n1)-c1cnn(C)c1OC[C@H]1C[C@@H](CN3/C(=N/C2=O)Nc2ccc(CN4CCN(C(=O)C5CN(c6cc(F)c([C@H]7CCC(=O)NC7=O)c(F)c6)C5)CC4)cc23)C1 [Example 3, (R)-3-(4-(3-(4-(((7^1s,7^3s,E)-1^1,2^6-dimethyl-3-oxo-5^2,5^3-dihydro-1^1H,5^1H-9-oxa-4-aza-5(2,1)-benzo[d]imidazola-2(2,4)-pyridina-1(4,5)-pyrazola-7(1,3)-cyclobutanacyclononaphane-5^6-yl)methyl)piperazine-1-carbonyl)azetidin-1-yl)-2,6-difluorophenyl)piperidine-2,6-dione]
86.6	84.6	Cc1cc2cc(n1)-c1cnn(C)c1OC[C@H]1C[C@@H](CN3/C(=N/C2=O)Nc2ccc(CN4CCN(C(=O)C5CN(c6cc(F)c([C@H]7CCC(=O)NC7=O)c(F)c6)CC5(C)C)CC4)cc23)C1 (stereo partly drawn) [Example 4, (R)-3-(4-((S)-4-(4-(((7^1s,7^3R,E)-1^1,2^6-dimethyl-3-oxo-5^2,5^3-dihydro-1^1H,5^1H-9-oxa-4-aza-5(2,1)-benzo[d]imidazola-2(2,4)-pyridina-1(4,5)-pyrazola-7(1,3)-cyclobutanacyclononaphane-5^6-yl)methyl)piperazine-1-carbonyl)-3,3-dimethylpyrrolidin-1-yl)-2,6-difluorophenyl)piperidine-2,6-dione]
92.9	92.2	Cc1cc2cc(n1)-c1cnn(C)c1OC[C@H]1C[C@@H](CN3/C(=N/C2=O)Nc2ccc(N4CCC(N5CCN(c6cnc(C7CCC(=O)NC7=O)cc6C)CC5)CC4)cc23)C1 (stereo partly shown) [Example 5, 3-(5-(4-(1-((7^1s,7^3s,E)-1^1,2^6-dimethyl-3-oxo-5^2,5^3-dihydro-1^1H,5^1H-9-oxa-4-aza-5(2,1)-benzo[d]imidazola-2(2,4)-pyridina-1(4,5)-pyrazola-7(1,3)-cyclobutanacyclononaphane-5^6-yl)piperidin-4-yl)piperazin-1-yl)-4-methylpyridin-2-yl)piperidine-2,6-dione]
78.6	80.6	Cc1cc2cc(n1)-c1cnn(C)c1OC[C@H]1C[C@@H](CN3/C(=N/C2=O)Nc2ccc(N4CCN(C5CCN(c6ccc(C7CCC(=O)NC7=O)nc6)CC5)C[C@H]4C)cc23)C1 (stereo partly drawn) [Example 7, 3-(5-(4-((R)-4-((7^1s,7^3S,E)-1^1,2^6-dimethyl-3-oxo-5^2,5^3-dihydro-1^1H,5^1H-9-oxa-4-aza-5(2,1)-benzo[d]imidazola-2(2,4)-pyridina-1(4,5)-pyrazola-7(1,3)-cyclobutanacyclononaphane-5^6-yl)-3-methylpiperazin-1-yl)piperidin-1-yl)pyridin-2-yl)piperidine-2,6-dione]
88.5	90.9	Cc1cc2cc(n1)-c1cnn(C)c1OC[C@H]1C[C@@H](CN3/C(=N/C2=O)Nc2ccc(N4CCN(CCc5cc(F)c([C@H]6CCC(=O)NC6=O)c(F)c5)CC4=O)cc23)C1 [Example 9, (R)-3-(4-(2-(4-((7^1s,7^3s,E)-1^1,2^6-dimethyl-3-oxo-5^2,5^3-dihydro-1^1H,5^1H-9-oxa-4-aza-5(2,1)-benzo[d]imidazola-2(2,4)-pyridina-1(4,5)-pyrazola-7(1,3)-cyclobutanacyclononaphane-5^6-yl)-3-oxopiperazin-1-yl)ethyl)-2,6-difluorophenyl)piperidine-2,6-dione]
89.8	90.6	Cc1cc2cc(n1)-c1cnn(C)c1OC[C@H]1C[C@@H](CN3/C(=N/C2=O)Nc2ccc(N4CCN(C5CCN(c6cc(F)c([C@H]7CCC(=O)NC7=O)c(F)c6)CC5)CC4=O)cc23)C1 [Example 10, (R)-3-(4-(4-(4-((7^1s,7^3s,E)-1^1,2^6-dimethyl-3-oxo-5^2,5^3-dihydro-1^1H,5^1H-9-oxa-4-aza-5(2,1)-benzo[d]imidazola-2(2,4)-pyridina-1(4,5)-pyrazola-7(1,3)-cyclobutanacyclononaphane-5^6-yl)-3-oxopiperazin-1-yl)piperidin-1-yl)-2,6-difluorophenyl)piperidine-2,6-dione]
